What was measured:
[1] = cited from earlier work
[2] = tested on: Sod1tm1Leb/J mouse retina; format: in vivo, mice; conditions: 250 mg/kg IP once daily from three days before paraquat; 0.75 mM intravitreal paraquat; ERG days 1 and 7; n=4
Excerpt: In furtherance of the in vitro results of Example 1 we carried out an in vivo experiment examining the ability of valproic acid to protect against oxidative insult (oxidative stress) to mammalian retina. We used a murine model in which oxidative stress is induced by pre-dosing with intravitreal paraquat in Sod1^tm1Leb/J mouse model (as set forth in Dong A., et al., Superoxide Dismutase 1 Protects Retinal Cells From Oxidative Damage, J Cell Physio 208:516-526, 2006).
C57BL6 mice heterozygous from the SOD1 gene were obtained from Jackson labs (strain B6;129S7-Sod1tm1Leb/J). The mice were 3-4 months of age at the time of the experiment. […]
ERG recording were measured on dark adapted animals on days 1 and 7 post paraquat injection using an Espion ERG Diagnosys system and Burian-Allen electrodes, 3.0 mm diameter from LKC Technologies, Inc. For ERG recordings mice were anesthetized with ketamine (100 mg/kg) plus xylazine (50 mg/kg) administered IP and pupils dilated with 1% Akpentolate (cyclopentolate hydrochloride) and 10% AK-Dilate (phenylephrine hydrochloride). […] Scotopic ERGs were recorded using a 0.001, 0.01, and 1 cd·s/m2 flash as well as a 20 Hz flicker with the animal on a heating pad. A-wave, B-wave amplitudes were then calculated and statistically significant changes between valproic treated and non-treated animals determined using T test, n=4.

visual system = conditions: systemic administration to mammals (Goto et al. 2003, rats); cited from earlier work

In the case of `CCCC(CCC)C(=O)[O-].[Na+]` [sodium valproate], the water solubility [1] is listed as “highly water soluble”.

In the case of `CCCC(CCC)C(=O)O` [valproic acid, 2-propylpentanoic acid], the “effect on paraquat induced decrease in ERG B-wave amplitude” value [2] is listed as “significantly inhibited paraquat induced decrease in B-wave amplitude” and the “effect on ERG a- and b-wave amplitudes and VEP” value (visual system) is listed as “suppress ERG a- and b-wave amplitudes as well as VEP”.

From US20130237602A1, “VALPROIC ACID DRUG DELIVERY SYSTEMS AND INTRAOCULAR THERAPEUTIC USES THEREOF” (ALLERGAN, INC., priority 2009, published 2013)
